Data reported in patent US8927533B2, “Thio derivatives bearing lactams as potent HDAC inhibitors and their uses as medicaments” (SIGMA-TAU Industrie Farmaceutiche Riunite S.p.A., priority 2011, dated 2015).

Columns and labels:
Format in all cases: biochemical
HDAC5 = HDAC5 (Homo sapiens, UniProt Q9UQL6); assay: HDAC enzymatic assay, HDAC5; details: fluorogenic tetrapeptide RHKKAc substrate 10 μM; read-out: HDAC isoforms IC50 (nM), 5
Experimental: (§1) Each compound was dissolved in DMSO, and progressively diluted solutions were used for testing. […] Upon its deacetylation, the fluorophore was released given rise to fluorescence emission which was detected by a fluorimeter, and the IC50 values of the compounds were determined by analyzing dose-response inhibition curves.

HDAC6 = molecular target: T1, HDAC6 (Homo sapiens, UniProt Q9UBN7); assay: HDAC enzymatic assay, HDAC6; details: fluorogenic tetrapeptide RHKKAc substrate 10 μM; read-out: HDAC isoforms IC50 (nM), 6
T1 sequence (Q9UBN7 1-1215): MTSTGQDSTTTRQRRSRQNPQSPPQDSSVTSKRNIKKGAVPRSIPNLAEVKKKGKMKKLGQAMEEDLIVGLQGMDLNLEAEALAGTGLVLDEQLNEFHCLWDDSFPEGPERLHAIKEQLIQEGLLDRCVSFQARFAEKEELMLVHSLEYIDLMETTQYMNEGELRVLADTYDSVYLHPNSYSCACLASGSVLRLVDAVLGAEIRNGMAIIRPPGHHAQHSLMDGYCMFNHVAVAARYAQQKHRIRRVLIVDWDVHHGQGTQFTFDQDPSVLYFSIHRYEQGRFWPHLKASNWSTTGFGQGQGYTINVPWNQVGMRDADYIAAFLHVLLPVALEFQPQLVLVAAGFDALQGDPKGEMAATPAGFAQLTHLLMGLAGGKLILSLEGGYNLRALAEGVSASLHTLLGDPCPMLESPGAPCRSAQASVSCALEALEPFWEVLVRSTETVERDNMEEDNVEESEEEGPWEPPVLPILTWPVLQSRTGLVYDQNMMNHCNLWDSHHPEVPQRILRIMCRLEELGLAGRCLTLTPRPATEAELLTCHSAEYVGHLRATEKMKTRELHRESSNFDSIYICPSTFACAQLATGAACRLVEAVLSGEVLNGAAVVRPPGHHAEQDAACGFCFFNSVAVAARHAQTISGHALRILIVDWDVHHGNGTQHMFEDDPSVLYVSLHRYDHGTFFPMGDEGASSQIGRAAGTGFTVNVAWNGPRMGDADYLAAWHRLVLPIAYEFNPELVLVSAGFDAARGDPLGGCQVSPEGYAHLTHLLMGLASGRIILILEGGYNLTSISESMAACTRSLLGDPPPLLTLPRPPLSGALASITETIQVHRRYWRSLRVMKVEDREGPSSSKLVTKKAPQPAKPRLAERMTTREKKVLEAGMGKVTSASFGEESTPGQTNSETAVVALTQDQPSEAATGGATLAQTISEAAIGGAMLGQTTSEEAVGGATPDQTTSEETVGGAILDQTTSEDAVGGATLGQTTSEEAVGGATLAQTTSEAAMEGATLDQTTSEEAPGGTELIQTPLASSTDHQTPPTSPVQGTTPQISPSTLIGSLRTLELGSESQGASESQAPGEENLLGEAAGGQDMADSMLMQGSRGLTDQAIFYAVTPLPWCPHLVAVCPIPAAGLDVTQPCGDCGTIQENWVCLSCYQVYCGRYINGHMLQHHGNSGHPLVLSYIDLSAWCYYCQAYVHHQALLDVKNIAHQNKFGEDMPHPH
Experimental: as §1

HDAC7 = molecular target: T2, HDAC7 (Homo sapiens, UniProt Q8WUI4); assay: HDAC enzymatic assay, HDAC7; details: fluorogenic tetrapeptide RHKKAc substrate 10 μM; read-out: HDAC isoforms IC50 (nM), 7
T2 sequence (Q8WUI4 1-952): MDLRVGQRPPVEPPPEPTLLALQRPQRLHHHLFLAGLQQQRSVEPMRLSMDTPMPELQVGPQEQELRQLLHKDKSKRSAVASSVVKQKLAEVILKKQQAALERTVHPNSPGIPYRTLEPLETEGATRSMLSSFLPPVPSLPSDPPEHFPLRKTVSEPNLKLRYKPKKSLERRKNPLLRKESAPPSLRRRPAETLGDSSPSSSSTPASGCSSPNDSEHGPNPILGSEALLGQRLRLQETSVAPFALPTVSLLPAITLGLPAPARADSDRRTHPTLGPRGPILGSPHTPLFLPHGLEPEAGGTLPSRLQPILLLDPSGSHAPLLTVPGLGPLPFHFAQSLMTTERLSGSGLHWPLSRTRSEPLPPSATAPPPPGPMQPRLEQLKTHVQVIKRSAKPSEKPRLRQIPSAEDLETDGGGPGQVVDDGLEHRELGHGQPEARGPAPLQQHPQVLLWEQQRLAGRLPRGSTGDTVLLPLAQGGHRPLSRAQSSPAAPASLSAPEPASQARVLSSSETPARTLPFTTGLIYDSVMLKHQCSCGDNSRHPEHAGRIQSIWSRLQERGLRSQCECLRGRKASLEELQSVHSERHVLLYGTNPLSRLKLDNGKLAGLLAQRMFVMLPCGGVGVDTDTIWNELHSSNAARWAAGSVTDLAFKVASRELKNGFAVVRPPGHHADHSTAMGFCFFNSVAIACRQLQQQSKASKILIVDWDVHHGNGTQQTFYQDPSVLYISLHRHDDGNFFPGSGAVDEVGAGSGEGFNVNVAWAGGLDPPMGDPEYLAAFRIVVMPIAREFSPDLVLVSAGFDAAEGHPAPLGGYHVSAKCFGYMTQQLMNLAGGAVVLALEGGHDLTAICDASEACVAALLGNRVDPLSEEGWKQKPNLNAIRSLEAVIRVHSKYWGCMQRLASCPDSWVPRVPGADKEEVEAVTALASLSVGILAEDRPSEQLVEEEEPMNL
Experimental: as §1

HDAC9 = HDAC9 (Homo sapiens, UniProt Q9UKV0); assay: HDAC enzymatic assay, HDAC9; details: fluorogenic tetrapeptide RHKKAc substrate 10 μM; read-out: HDAC isoforms IC50 (nM), 9
Experimental: as §1

HDAC8 = molecular target: T3, HDAC8 (Homo sapiens, UniProt Q9BY41); assay: HDAC enzymatic assay, HDAC8; details: fluorogenic tetrapeptide RHKKAc substrate 10 μM; read-out: HDAC isoforms IC50 (nM), 8
T3 sequence (Q9BY41 1-377): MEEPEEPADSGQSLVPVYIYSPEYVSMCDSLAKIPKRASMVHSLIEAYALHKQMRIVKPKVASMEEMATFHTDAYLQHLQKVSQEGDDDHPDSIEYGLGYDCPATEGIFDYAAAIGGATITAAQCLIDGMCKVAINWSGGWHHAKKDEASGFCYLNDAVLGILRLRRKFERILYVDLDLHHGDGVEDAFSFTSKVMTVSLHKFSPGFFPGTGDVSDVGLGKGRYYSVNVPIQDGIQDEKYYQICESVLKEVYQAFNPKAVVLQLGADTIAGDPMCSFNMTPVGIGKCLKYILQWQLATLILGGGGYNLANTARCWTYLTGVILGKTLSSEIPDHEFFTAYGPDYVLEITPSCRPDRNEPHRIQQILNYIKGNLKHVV
Experimental: as §1

Chain of HDAC5 (Q9UQL6 whole entry, canonical isoform): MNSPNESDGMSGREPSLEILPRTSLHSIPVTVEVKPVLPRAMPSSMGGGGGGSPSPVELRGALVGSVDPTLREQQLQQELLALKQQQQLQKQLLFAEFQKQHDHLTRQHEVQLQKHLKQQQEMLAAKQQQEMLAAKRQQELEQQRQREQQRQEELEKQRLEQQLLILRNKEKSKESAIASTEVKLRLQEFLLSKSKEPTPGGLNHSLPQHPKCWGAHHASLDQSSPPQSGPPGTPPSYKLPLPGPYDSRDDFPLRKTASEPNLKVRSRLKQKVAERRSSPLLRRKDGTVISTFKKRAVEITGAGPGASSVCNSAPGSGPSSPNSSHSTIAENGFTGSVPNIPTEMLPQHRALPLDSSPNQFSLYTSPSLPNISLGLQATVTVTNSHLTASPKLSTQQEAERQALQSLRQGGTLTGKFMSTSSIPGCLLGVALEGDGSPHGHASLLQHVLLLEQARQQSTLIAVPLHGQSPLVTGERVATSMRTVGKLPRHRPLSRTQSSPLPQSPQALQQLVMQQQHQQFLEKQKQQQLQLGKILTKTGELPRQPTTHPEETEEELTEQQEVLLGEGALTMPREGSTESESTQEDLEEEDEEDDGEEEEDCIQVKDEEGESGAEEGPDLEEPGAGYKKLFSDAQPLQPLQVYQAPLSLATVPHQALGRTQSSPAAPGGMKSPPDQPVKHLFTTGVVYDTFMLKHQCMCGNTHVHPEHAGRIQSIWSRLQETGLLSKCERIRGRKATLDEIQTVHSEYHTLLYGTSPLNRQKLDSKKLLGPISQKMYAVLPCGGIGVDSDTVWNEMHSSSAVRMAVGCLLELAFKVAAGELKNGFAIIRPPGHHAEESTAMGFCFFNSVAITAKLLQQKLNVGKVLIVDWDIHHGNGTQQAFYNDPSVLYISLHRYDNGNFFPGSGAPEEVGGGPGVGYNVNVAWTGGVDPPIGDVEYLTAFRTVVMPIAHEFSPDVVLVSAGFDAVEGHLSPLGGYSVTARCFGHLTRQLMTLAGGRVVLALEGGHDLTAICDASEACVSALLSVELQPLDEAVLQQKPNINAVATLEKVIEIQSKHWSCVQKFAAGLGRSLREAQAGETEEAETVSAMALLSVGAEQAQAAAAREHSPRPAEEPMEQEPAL
Chain of HDAC9 (Q9UKV0 whole entry, canonical isoform): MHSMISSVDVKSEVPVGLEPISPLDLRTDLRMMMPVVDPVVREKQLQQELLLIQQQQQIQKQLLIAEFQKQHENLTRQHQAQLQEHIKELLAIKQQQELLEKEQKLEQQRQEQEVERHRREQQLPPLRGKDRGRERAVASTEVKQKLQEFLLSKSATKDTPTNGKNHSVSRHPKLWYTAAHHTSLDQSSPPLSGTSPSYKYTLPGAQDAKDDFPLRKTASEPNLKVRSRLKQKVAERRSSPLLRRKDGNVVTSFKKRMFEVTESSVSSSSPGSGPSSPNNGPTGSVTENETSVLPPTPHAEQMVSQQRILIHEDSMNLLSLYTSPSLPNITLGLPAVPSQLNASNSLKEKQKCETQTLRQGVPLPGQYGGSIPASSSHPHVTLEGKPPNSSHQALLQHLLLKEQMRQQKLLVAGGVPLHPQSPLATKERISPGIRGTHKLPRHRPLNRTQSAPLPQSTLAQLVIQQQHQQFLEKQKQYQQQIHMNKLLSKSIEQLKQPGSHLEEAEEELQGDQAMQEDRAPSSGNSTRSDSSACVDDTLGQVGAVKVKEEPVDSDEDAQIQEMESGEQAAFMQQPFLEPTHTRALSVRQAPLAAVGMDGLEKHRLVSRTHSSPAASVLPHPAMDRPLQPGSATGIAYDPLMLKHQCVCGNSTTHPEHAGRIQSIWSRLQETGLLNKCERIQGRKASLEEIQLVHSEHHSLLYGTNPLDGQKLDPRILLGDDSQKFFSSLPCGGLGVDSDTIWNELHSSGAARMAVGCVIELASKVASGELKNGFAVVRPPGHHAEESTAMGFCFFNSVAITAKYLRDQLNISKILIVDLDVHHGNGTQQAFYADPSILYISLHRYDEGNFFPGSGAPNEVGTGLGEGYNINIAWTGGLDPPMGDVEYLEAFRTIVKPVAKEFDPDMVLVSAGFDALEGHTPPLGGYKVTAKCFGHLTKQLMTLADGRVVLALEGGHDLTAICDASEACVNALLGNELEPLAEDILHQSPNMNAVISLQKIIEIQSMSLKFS

| Compound | IC50 (HDAC5) [nM] | IC50 (HDAC6) [nM] | IC50 (HDAC7) [nM] | IC50 (HDAC9) [nM] | IC50 (HDAC8) [nM] |
| --- | --- | --- | --- | --- | --- |
| O=C1CCC[C@H](C(=O)N[C@@H](CCCCCS)C(=O)Nc2ccccc2)N1 [Example 37, (R)-6-Oxo-piperidine-2-carboxylic acid ((S)-6-mercapto-1-phenylcarbamoyl-hexyl)amide] | < 50 | < 50 | 100 to 500 | < 50 | 100 to 500 |
| Cc1cccc(NC(=O)[C@H](CCCCCS)NC(=O)[C@@H]2CCCC(=O)N2)c1 [Example 38, (S)-6-Oxo-piperidine-2-carboxylic acid ((S)-6-mercapto-1-m-tolylcarbamoyl-hexyl)amide] | < 50 | < 50 | < 50 | < 50 | 100 to 500 |
| Cc1ccc(NC(=O)[C@H](CCCCCS)NC(=O)[C@@H]2CCCC(=O)N2)cc1 [Example 39, (S)-6-Oxo-piperidine-2-carboxylic acid ((S)-6-mercapto-1-p-tolylcarbamoyl-hexyl)amide] | < 50 | < 50 | < 50 | < 50 | 100 to 500 |
| CN1C(=O)CCC[C@H]1C(=O)N[C@@H](CCCCCS)C(=O)Nc1ccccc1 [Example 40, (S)-1-Methyl-6-oxo-piperidine-2-carboxylic acid ((S)-6-mercapto-1-phenylcarbamoyl-hexyl)-amide] | < 50 | < 50 | < 50 | < 50 | 100 to 500 |

More lines, now with the values ahead:

| IC50 (HDAC5) [nM] | IC50 (HDAC6) [nM] | IC50 (HDAC7) [nM] | IC50 (HDAC9) [nM] | IC50 (HDAC8) [nM] | Compound |
| --- | --- | --- | --- | --- | --- |
| < 50 | < 50 | < 50 | < 50 | 50 to 100 | O=C1NCCC[C@H]1C(=O)N[C@@H](CCCCCS)C(=O)Nc1ccccc1 [Example 35, (R)-2-Oxo-piperidine-3-carboxylic acid ((S)-6-mercapto-1-phenylcarbamoyl-hexyl)amide] |
| < 50 | < 50 | 50 to 100 | < 50 | 100 to 500 | O=C1NCCC[C@@H]1C(=O)N[C@@H](CCCCCS)C(=O)Nc1ccccc1 [Example 36, (S)-2-Oxo-piperidine-3-carboxylic acid ((S)-6-mercapto-1-phenylcarbamoyl-hexyl)amide] |
